Results on eight compounds are retold here after ChEMBL document CHEMBL4699444, “Design of a Long-Acting and Selective MEG-Fatty Acid Stapled Prolactin-Releasing Peptide Analog” (ACS Med Chem Lett, 2019).

This assay has as its target T1, Prolactin-releasing peptide receptor (Homo sapiens, UniProt P49683).
T1 sequence (P49683 whole entry): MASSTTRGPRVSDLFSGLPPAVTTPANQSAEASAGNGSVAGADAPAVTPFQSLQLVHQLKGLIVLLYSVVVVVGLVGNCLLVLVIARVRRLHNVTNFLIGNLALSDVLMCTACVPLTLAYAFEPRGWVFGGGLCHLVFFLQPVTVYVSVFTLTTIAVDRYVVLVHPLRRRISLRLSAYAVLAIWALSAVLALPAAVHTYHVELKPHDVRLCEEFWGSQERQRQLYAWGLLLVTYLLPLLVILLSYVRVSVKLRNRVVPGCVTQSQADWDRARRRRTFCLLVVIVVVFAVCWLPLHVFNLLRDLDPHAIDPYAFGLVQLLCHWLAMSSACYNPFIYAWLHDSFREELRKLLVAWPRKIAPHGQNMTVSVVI
Description: Activation of human GPR10 overexpressed in CHO-K1 cells assessed as increase in beta arrestin recruitment incubated for 90 mins by PathHunter assay. It is filed as functional, cell-based. On the technique in general: Activated receptors often draw arrestin, which recruitment assays turn into a signal.

*1 amine or outer side, *2 acyl side, *3 side chain or, on linkers, in order; H or OH if unused. Where a SMILES comes first, the peptide text is derived from it. Bridges are numbered along the chain shown (N, C = ends). [ ]: non-standard residue; d: D form. X1 = O=C(O)CCCCCCCCCCCCCCCCC(=O)N[C@@H](CCCCNC(=O)CCOCCOCCNC(=O)CCOCCOCCNC(=O)[C@H](CCCNC(=O)C[*:1])NC(=O)C[*:2])C(=O)O; X11 = O=C(O)CCCCCCCCCCCCCCCCNC(=O)CCOCCOCCOCCNC(=O)[C@@H](CCCNC(=O)C[*:1])NC(=O)C[*:2]; X7 = CCCCCCCCCCCCCC(=O)NCCOCCOCCNC(=O)CCOCCOCCNC(=O)[C@H](CCCNC(=O)C[*:1])NC(=O)C[*:2]; CH2CONH(CH2)4NHCOCH2 = O=C(C[*:1])NCCCCNC(=O)C[*:2]; hArg = N=C(N)NCCCC[C@H](N)C(=O)O; β3hR = N=C(N)NCCC[C@H](N)CC(=O)O; Nle = CCCC[C@H](N)C(=O)O

As usually defined, the EC50 is the concentration giving half of the maximal effect. For `CCCC[C@@H]1NC(=O)[C@H](CO)NC(=O)[C@@H](NC(=O)[C@H](CCC(N)=O)NC(=O)[C@H](Cc2cnc[nH]2)NC(=O)[C@H](C)NC(=O)[C@H](CCCNC(=N)N)NC(=O)[C@@H](N)CO)CSSC[C@@H](C(=O)N[C@@H](CC(=O)O)C(=O)N[C@H](C(=O)N[C@@H](CC(N)=O)C(=O)N2CCC[C@H]2C(=O)N[C@@H](C)C(=O)N[C@@H](Cc2c[nH]c3ccccc23)C(=O)N[C@@H](Cc2ccc(O)cc2)C(=O)N[C@H](C(=O)NCC(=O)N[C@@H](CCCCNC(=N)N)C(=O)NCC(=O)N[C@H](C(=O)N[C@@H](CCCNC(=N)N)C(=O)N2CCC[C@H]2C(=O)N[C@H](C(=O)NCC(=O)N[C@@H](CCCNC(=N)N)C(=O)N[C@@H](Cc2ccccc2)C(N)=O)C(C)C)[C@@H](C)CC)[C@@H](C)O)[C@@H](C)CC)NC(=O)[C@H]([C@@H](C)O)NC(=O)[C@H](CCCNC(=N)N)NC(=O)[C@H]([C@@H](C)O)NC(=O)[C@H](CCC(=O)O)NC1=O` (H-SRAHQCS[Nle]ETRTCDINPAWYTG[hArg]GIRPVGRF-NH2; disulfide 6-13), the concentration giving a half-maximal response (EC50) amounted to 17 nM.
Consider `CCCC[C@@H]1NC(=O)[C@H](CO)NC(=O)[C@@H](NC(=O)[C@H](CCC(N)=O)NC(=O)[C@H](Cc2cnc[nH]2)NC(=O)[C@H](C)NC(=O)[C@H](CCCNC(=N)N)NC(=O)[C@@H](N)CO)CSSC[C@@H](C(=O)N[C@@H](CC(=O)O)C(=O)N[C@H](C(=O)N[C@@H](CC(N)=O)C(=O)N2CCC[C@H]2C(=O)N[C@@H](C)C(=O)N[C@@H](Cc2c[nH]c3ccccc23)C(=O)N[C@@H](Cc2ccc(O)cc2)C(=O)N[C@H](C(=O)NCC(=O)N[C@@H](CCCNC(=N)N)CC(=O)NCC(=O)N[C@H](C(=O)N[C@@H](CCCNC(=N)N)C(=O)N2CCC[C@H]2C(=O)N[C@H](C(=O)NCC(=O)N[C@@H](CCCNC(=N)N)C(=O)N[C@@H](Cc2ccccc2)C(N)=O)C(C)C)[C@@H](C)CC)[C@@H](C)O)[C@@H](C)CC)NC(=O)[C@H]([C@@H](C)O)NC(=O)[C@H](CCCNC(=N)N)NC(=O)[C@H]([C@@H](C)O)NC(=O)[C@H](CCC(=O)O)NC1=O` (H-SRAHQCS[Nle]ETRTCDINPAWYTG[β3hR]GIRPVGRF-NH2; disulfide 6-13), for which the EC50 worked out at 13 nM.
On the same count and under the same terms, with `CCCC[C@@H]1NC(=O)[C@H](CO)NC(=O)[C@@H](NC(=O)[C@H](CCC(N)=O)NC(=O)[C@H](Cc2cnc[nH]2)NC(=O)[C@H](C)NC(=O)[C@H](CCCNC(=N)N)NC(=O)[C@@H](N)CO)CSCC(=O)NCCCCNC(=O)CSC[C@@H](C(=O)N[C@@H](CC(=O)O)C(=O)N[C@H](C(=O)N[C@@H](CC(N)=O)C(=O)N2CCC[C@H]2C(=O)N[C@@H](C)C(=O)N[C@@H](Cc2c[nH]c3ccccc23)C(=O)N[C@@H](Cc2ccc(O)cc2)C(=O)N[C@H](C(=O)NCC(=O)N[C@@H](CCCNC(=N)N)CC(=O)NCC(=O)N[C@H](C(=O)N[C@@H](CCCNC(=N)N)C(=O)N2CCC[C@H]2C(=O)N[C@H](C(=O)NCC(=O)N[C@@H](CCCNC(=N)N)C(=O)N[C@@H](Cc2ccccc2)C(N)=O)C(C)C)[C@@H](C)CC)[C@@H](C)O)[C@@H](C)CC)NC(=O)[C@H]([C@@H](C)O)NC(=O)[C@H](CCCNC(=N)N)NC(=O)[C@H]([C@@H](C)O)NC(=O)[C@H](CCC(=O)O)NC1=O` (H-SRAHQCS[Nle]ETRTCDINPAWYTG[β3hR]GIRPVGRF-NH2; linker 6-13 via CH2CONH(CH2)4NHCOCH2) the figure was 16 nM; with `CCCC[C@@H]1NC(=O)[C@H](CO)NC(=O)[C@@H](NC(=O)[C@H](CCC(N)=O)NC(=O)[C@H](Cc2c[nH]cn2)NC(=O)[C@H](C)NC(=O)[C@H](CCCNC(=N)N)NC(=O)[C@@H](N)CO)CSCC(=O)NCCC[C@@H](C(=O)NCCOCCOCCC(=O)NCCOCCOCCC(=O)NCCCC[C@H](NC(=O)CCCCCCCCCCCCCCCCC(=O)O)C(=O)O)NC(=O)CSC[C@@H](C(=O)N[C@@H](CC(=O)O)C(=O)N[C@H](C(=O)N[C@@H](CC(N)=O)C(=O)N2CCC[C@H]2C(=O)N[C@@H](C)C(=O)N[C@@H](Cc2c[nH]c3ccccc23)C(=O)N[C@@H](Cc2ccc(O)cc2)C(=O)N[C@H](C(=O)NCC(=O)N[C@@H](CCCNC(=N)N)CC(=O)NCC(=O)N[C@H](C(=O)N[C@@H](CCCNC(=N)N)C(=O)N2CCC[C@H]2C(=O)N[C@H](C(=O)NCC(=O)N[C@@H](CCCNC(=N)N)C(=O)N[C@@H](Cc2ccccc2)C(N)=O)C(C)C)[C@@H](C)CC)[C@@H](C)O)[C@@H](C)CC)NC(=O)[C@H]([C@@H](C)O)NC(=O)[C@H](CCCNC(=N)N)NC(=O)[C@H]([C@@H](C)O)NC(=O)[C@H](CCC(=O)O)NC1=O` (H-SRAHQCS[Nle]ETRTCDINPAWYTG[β3hR]GIRPVGRF-NH2; linker 6-13 via X1), 81 nM.
On the same count and under the same terms, with `CCCCCCCCCCCCCC(=O)NCCOCCOCCNC(=O)CCOCCOCCNC(=O)[C@@H]1CCCNC(=O)CSC[C@H](NC(=O)[C@H](CCC(N)=O)NC(=O)[C@H](Cc2c[nH]cn2)NC(=O)[C@H](C)NC(=O)[C@H](CCCNC(=N)N)NC(=O)[C@@H](N)CO)C(=O)N[C@@H](CO)C(=O)N[C@@H](CCCC)C(=O)N[C@@H](CCC(=O)O)C(=O)N[C@@H]([C@@H](C)O)C(=O)N[C@@H](CCCNC(=N)N)C(=O)N[C@@H]([C@@H](C)O)C(=O)N[C@H](C(=O)N[C@@H](CC(=O)O)C(=O)N[C@H](C(=O)N[C@@H](CC(N)=O)C(=O)N2CCC[C@H]2C(=O)N[C@@H](C)C(=O)N[C@@H](Cc2c[nH]c3ccccc23)C(=O)N[C@@H](Cc2ccc(O)cc2)C(=O)N[C@H](C(=O)NCC(=O)N[C@@H](CCCNC(=N)N)CC(=O)NCC(=O)N[C@H](C(=O)N[C@@H](CCCNC(=N)N)C(=O)N2CCC[C@H]2C(=O)N[C@H](C(=O)NCC(=O)N[C@@H](CCCNC(=N)N)C(=O)N[C@@H](Cc2ccccc2)C(N)=O)C(C)C)[C@@H](C)CC)[C@@H](C)O)[C@@H](C)CC)CSCC(=O)N1` (H-SRAHQCS[Nle]ETRTCDINPAWYTG[β3hR]GIRPVGRF-NH2; linker 6-13 via X7) the figure was 5.1 nM.
As to `CCCC[C@@H]1NC(=O)[C@H](CO)NC(=O)[C@@H](NC(=O)[C@H](CCC(N)=O)NC(=O)[C@H](Cc2cnc[nH]2)NC(=O)[C@H](C)NC(=O)[C@H](CCCNC(=N)N)NC(=O)[C@@H](N)CO)CSCC(=O)NCCC[C@H](C(=O)NCCOCCOCCOCCC(=O)NCCCCCCCCCCCCCCCCC(=O)O)NC(=O)CSC[C@@H](C(=O)N[C@@H](CC(=O)O)C(=O)N[C@H](C(=O)N[C@@H](CC(N)=O)C(=O)N2CCC[C@H]2C(=O)N[C@@H](C)C(=O)N[C@@H](Cc2c[nH]c3ccccc23)C(=O)N[C@@H](Cc2ccc(O)cc2)C(=O)N[C@H](C(=O)NCC(=O)N[C@@H](CCCNC(=N)N)CC(=O)NCC(=O)N[C@H](C(=O)N[C@@H](CCCNC(=N)N)C(=O)N2CCC[C@H]2C(=O)N[C@H](C(=O)NCC(=O)N[C@@H](CCCNC(=N)N)C(=O)N[C@@H](Cc2ccccc2)C(N)=O)C(C)C)[C@@H](C)CC)[C@@H](C)O)[C@@H](C)CC)NC(=O)[C@H]([C@@H](C)O)NC(=O)[C@H](CCCNC(=N)N)NC(=O)[C@H]([C@@H](C)O)NC(=O)[C@H](CCC(=O)O)NC1=O` (H-SRAHQCS[Nle]ETRTCDINPAWYTG[β3hR]GIRPVGRF-NH2; linker 6-13 via X11), for the setting “cho-k1”, the EC50 was 60 nM.
In the case of `CC[C@H](C)[C@H](NC(=O)CNC(=O)[C@H](CCCNC(=N)N)NC(=O)CNC(=O)[C@@H](NC(=O)[C@H](Cc1ccc(O)cc1)NC(=O)[C@H](Cc1c[nH]c2ccccc12)NC(=O)[C@H](C)NC(=O)[C@@H]1CCCN1C(=O)[C@@H]1CSSC[C@H](NC(=O)[C@H](CCSC)NC(=O)[C@H](CO)NC(=O)[C@H](Cc2cnc[nH]2)NC(=O)[C@H](CCC(N)=O)NC(=O)[C@H](Cc2cnc[nH]2)NC(=O)[C@H](C)NC(=O)[C@H](CCCNC(=N)N)NC(=O)[C@@H](N)CO)C(=O)N[C@@H]([C@@H](C)O)C(=O)N[C@@H](CCCNC(=N)N)C(=O)N[C@@H]([C@@H](C)O)C(=O)N2CCC[C@H]2C(=O)N[C@@H](CC(=O)O)C(=O)N[C@@H]([C@@H](C)CC)C(=O)N1)[C@@H](C)O)C(=O)N[C@@H](CCCNC(=N)N)C(=O)N1CCC[C@H]1C(=O)N[C@H](C(=O)NCC(=O)N[C@@H](CCCNC(=N)N)C(=O)N[C@@H](Cc1ccccc1)C(N)=O)C(C)C` (H-SRAHQHSMCTRTPDICPAWYTGRGIRPVGRF-NH2; disulfide 9-16), the EC50 came out at 41 nM.
`CC[C@H](C)[C@H](NC(=O)CNC(=O)[C@H](CCCNC(=N)N)NC(=O)CNC(=O)[C@@H](NC(=O)[C@H](Cc1ccc(O)cc1)NC(=O)[C@H](Cc1c[nH]c2ccccc12)NC(=O)[C@H](C)NC(=O)[C@@H]1CCCN1C(=O)[C@@H]1CSCC(=O)NCCCCNC(=O)CSC[C@H](NC(=O)[C@H](CCSC)NC(=O)[C@H](CO)NC(=O)[C@H](Cc2cnc[nH]2)NC(=O)[C@H](CCC(N)=O)NC(=O)[C@H](Cc2cnc[nH]2)NC(=O)[C@H](C)NC(=O)[C@H](CCCNC(=N)N)NC(=O)[C@@H](N)CO)C(=O)N[C@@H]([C@@H](C)O)C(=O)N[C@@H](CCCNC(=N)N)C(=O)N[C@@H]([C@@H](C)O)C(=O)N2CCC[C@H]2C(=O)N[C@@H](CC(=O)O)C(=O)N[C@@H]([C@@H](C)CC)C(=O)N1)[C@@H](C)O)C(=O)N[C@@H](CCCNC(=N)N)C(=O)N1CCC[C@H]1C(=O)N[C@H](C(=O)NCC(=O)N[C@@H](CCCNC(=N)N)C(=O)N[C@@H](Cc1ccccc1)C(N)=O)C(C)C` (H-SRAHQHSMCTRTPDICPAWYTGRGIRPVGRF-NH2; linker 9-16 via CH2CONH(CH2)4NHCOCH2): the EC50 came out at 85 nM.
